Data reported in patent publication US9604961B2, “Histone demethylase inhibitors” (Celgene Quanticel Research, Inc., priority 2012, dated 2017).

What was measured:
Type in all cases: biochemical
JMJD2C = JMJD2C (Homo sapiens (Human), UniProt Q9H3R0); assay: JMJD2C in vitro enzyme inhibition assay (TR-FRET)
Procedure: Baculovirus expressed JMJD2C (GenBank Accession #BC143571, AA 2-372) was purchased from BPS Bioscience (Cat#50105).
The ability of test compounds to inhibit the activity of JMJD2C was determined in 384-well plate format under the following reaction conditions: 0.3 nM JMJD2C, 300 nM H3K9me3-biotin labeled peptide (Anaspec cat #64360), 2 μM alpha-ketoglutaric acid in assay buffer of 50 mM HEPES, pH7.3, 0.005% Brij35, 0.5 mM TCEP, 0.2 mg/ml BSA, 50 μM sodium L-ascorbate, and 2 μM ammonium iron(II) sulfate. Reaction product was determined quantitatively by TR-FRET after the addition of detection reagent Phycolink Streptavidin-allophycocyanin (Prozyme) and Europium-anti-di-methylated histone H3 lysine 9 (H3K9me2) antibody (PerkinElmer) in the presence of 5 mM EDTA in LANCE detection buffer (PerkinElmer) at a final concentration of 50 nM and 1 nM, respectively.
The assay reaction was initiated by the following: 2 μl of the mixture of 900 nM H3K9me3-biotin labeled peptide and 6 μM alpha-ketoglutaric acid with 2 μl of 11-point serial diluted inhibitor in 3% DMSO were added to each well of the plate, followed by the addition of 2 μl of 0.9 nM JMJD2C to initiate the reaction. The reaction mixture was incubated at room temperature for 30 minutes, and terminated by the addition of 6 μl of 5 mM EDTA in LANCE detection buffer containing 100 nM Phycolink Streptavidin-allophycocyanin and 2 nM Europium-anti-H3K9me2 antibody. Plates were read by EnVisionMultilabel Reader in TR-FRET mode (excitation at 320 nm, emission at 615 nm and 665 nm) after 1 hour incubation at room temperature. A ratio was calculated (665/615) for each well and fitted to determine inhibition constant (IC50).

Jarid1A = Jarid1A (Homo sapiens (Human), UniProt P29375); assay: Jarid1A in vitro enzyme inhibition assay (TR-FRET)
Excerpt: The enzymatic assay of Jarid1A activity is based upon Time Resolved-Fluorescence Resonance Energy Transfer (TR-FRET) detection.

Jarid1B = Jarid1B (Homo sapiens (Human), UniProt Q9UGL1); assay: Jarid1B in vitro enzyme inhibition assay (TR-FRET)
Jarid1B, sequence (Q9UGL1 2-751): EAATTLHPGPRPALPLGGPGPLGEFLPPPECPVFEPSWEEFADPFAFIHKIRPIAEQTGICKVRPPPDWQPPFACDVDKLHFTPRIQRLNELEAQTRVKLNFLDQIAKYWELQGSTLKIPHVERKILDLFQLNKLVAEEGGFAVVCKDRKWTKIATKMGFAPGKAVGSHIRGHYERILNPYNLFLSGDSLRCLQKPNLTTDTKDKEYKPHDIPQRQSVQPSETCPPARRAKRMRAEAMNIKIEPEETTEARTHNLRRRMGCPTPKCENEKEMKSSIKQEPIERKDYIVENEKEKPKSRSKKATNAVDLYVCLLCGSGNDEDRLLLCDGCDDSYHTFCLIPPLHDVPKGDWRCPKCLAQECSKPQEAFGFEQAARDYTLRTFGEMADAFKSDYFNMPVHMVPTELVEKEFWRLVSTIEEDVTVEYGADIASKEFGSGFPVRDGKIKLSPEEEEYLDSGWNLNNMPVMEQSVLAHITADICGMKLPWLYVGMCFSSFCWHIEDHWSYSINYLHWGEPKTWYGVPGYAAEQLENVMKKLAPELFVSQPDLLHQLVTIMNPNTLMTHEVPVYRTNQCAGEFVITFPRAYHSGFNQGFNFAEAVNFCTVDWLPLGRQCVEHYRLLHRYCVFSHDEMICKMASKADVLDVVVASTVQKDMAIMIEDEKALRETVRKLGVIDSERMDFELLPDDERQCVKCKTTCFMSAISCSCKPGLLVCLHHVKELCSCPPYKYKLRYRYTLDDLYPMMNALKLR
Procedure: This assay determines the ability of a test compound to inhibit Jarid1A, Jarid1B, JMJD2C, and JMJD2A demethylase activity.
The ability of test compounds to inhibit the activity of Jarid1B was determined in 384-well plate format under the following reaction conditions: 0.8 nM Jarid1B, 300 nM H3K4me3-biotin labeled peptide (Anaspec cat #64357), 2 μM alpha-ketoglutaric acid in assay buffer of 50 mM HEPES, pH7.3, 0.005% Brij35, 0.5 mM TCEP, 0.2 mg/ml BSA, 50 μM sodium L-ascorbate, and 2 μM ammonium iron(II) sulfate. Reaction product was determined quantitatively by TR-FRET after the addition of detection reagent Phycolink Streptavidin-allophycocyanin (Prozyme) and Europium-anti-mono- or di-methylated histone H3 lysine 4 (H3K4me1-2) antibody (PerkinElmer) in the presence of 5 mM EDTA in LANCE detection buffer (PerkinElmer) at a final concentration of 25 nM and 1 nM, respectively.
The assay reaction was initiated by the following: 2 μl of the mixture of 900 nM H3K4me3-biotin labeled peptide and 6 μM alpha-ketoglutaric acid with 2 μl of 11-point serial diluted inhibitor in 3% DMSO was added to each well of the plate, followed by the addition of 2 μl of 2.4 nM Jarid1B to initiate the reaction. The reaction mixture was incubated at room temperature for 30 minutes, and terminated by the addition of 6 μl of 5 mM EDTA in LANCE detection buffer containing 50 nM Phycolink Streptavidin-allophycocyanin and 2 nM Europium-anti-H3K4me1-2 antibody. Plates were read by EnVisionMultilabel Reader in TR-FRET mode (excitation at 320 nm, emission at 615 nm and 665 nm) after 1 hour incubation at room temperature. A ratio was calculated (665/615) for each well and fitted to determine inhibition constant (IC50).

Jarid1A, sequence (P29375 1-1090): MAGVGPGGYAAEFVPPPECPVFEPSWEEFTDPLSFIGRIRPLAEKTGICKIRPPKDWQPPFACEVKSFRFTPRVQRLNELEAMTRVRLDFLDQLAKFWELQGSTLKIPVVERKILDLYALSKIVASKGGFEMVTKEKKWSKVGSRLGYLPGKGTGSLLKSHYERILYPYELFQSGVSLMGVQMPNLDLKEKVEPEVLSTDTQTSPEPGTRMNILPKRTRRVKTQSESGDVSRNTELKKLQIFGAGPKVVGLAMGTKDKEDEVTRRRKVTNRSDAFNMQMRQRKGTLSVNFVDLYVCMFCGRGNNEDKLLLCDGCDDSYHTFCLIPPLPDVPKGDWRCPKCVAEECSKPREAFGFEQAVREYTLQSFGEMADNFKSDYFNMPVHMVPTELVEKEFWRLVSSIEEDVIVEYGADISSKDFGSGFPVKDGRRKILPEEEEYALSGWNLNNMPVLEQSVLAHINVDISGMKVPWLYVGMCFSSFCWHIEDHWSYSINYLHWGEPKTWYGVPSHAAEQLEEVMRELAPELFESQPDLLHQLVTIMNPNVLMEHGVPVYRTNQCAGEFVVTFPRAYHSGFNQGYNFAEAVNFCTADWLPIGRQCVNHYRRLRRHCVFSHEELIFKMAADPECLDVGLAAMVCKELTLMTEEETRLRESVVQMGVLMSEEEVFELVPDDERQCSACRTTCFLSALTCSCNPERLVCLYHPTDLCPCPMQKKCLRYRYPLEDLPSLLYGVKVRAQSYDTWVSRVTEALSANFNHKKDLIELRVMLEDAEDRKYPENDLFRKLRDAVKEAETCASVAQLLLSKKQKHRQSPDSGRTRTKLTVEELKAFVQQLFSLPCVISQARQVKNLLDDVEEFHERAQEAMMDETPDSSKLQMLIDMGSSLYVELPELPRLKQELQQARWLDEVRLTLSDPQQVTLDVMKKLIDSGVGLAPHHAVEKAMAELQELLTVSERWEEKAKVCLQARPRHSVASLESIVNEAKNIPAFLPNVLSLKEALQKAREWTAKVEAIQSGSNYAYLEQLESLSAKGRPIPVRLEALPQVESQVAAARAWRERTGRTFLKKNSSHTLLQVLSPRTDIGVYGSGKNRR
JMJD2C, sequence (Q9H3R0 2-372): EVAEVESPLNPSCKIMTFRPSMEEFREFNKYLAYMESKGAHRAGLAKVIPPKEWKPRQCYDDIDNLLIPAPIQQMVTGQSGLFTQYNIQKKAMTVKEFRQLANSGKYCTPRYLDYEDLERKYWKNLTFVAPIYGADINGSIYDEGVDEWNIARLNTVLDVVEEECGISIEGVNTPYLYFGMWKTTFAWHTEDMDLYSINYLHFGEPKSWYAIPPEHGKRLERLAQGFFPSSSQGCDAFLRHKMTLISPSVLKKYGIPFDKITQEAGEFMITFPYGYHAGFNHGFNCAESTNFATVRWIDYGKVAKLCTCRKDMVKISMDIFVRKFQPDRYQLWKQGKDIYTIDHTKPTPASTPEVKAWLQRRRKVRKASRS

Structure (SMILES)	IC50 (JMJD2C)	IC50 (Jarid1A)	IC50 (Jarid1B)
CC(Oc1ccnn1-c1cc(C(=O)O)ccn1)c1ccc(F)cc1 (stereo not drawn) [Example 82, 2-[5-[1-(4-fluorophenyl)ethoxy]pyrazol-1-yl]pyridine-4-carboxylic acid]	100 to 1000 nM	< 100 nM	< 100 nM
O=C(O)c1ccnc(-n2nccc2OCC2CC(F)(F)C2)c1 [Example 83, 2-[5-[(3,3-difluorocyclobutyl)methoxy]pyrazol-1-yl]pyridine-4-carboxylic acid]	< 100 nM	< 100 nM	< 100 nM
Cc1cnn(-c2cc(C(=O)O)ccn2)c1OCc1ccc(F)cc1 [Example 84, 2-[5-[(4-fluorophenyl)methoxy]-4-methylpyrazol-1-yl]pyridine-4-carboxylic acid]	100 to 1000 nM	< 100 nM	< 100 nM
CCc1cnn(-c2cc(C(=O)O)ccn2)c1OCc1ccc(F)cc1 [Example 85, 2-[4-ethyl-5-[(4-fluorophenyl)methoxy]pyrazol-1-yl]pyridine-4-carboxylic acid]	100 to 1000 nM	< 100 nM	< 100 nM
O=C(O)c1ccnc(-n2ncc(CCO)c2OCc2ccc(F)cc2)c1 [Example 109, 2-[5-[(4-fluorophenyl)methoxy]-4-(2-hydroxyethyl)pyrazol-1-yl]pyridine-4-carboxylic acid]	1000 to 10000 nM	< 100 nM	< 100 nM
CN(C)CCc1cnn(-c2cc(C(=O)O)ccn2)c1OCc1ccc(F)cc1 [Example 110, 2-[4-[2-(dimethylamino)ethyl]-5-[(4-fluorophenyl)methoxy]pyrazol-1-yl]pyridine-4-carboxylic acid]	100 to 1000 nM	< 100 nM	< 100 nM
COCCOc1cc(Cl)ccc1COc1ccnn1-c1cc(C(=O)O)ccn1 [Example 116, 2-[5-[[4-chloro-2-(2-methoxyethoxy)phenyl]methoxy]pyrazol-1-yl]pyridine-4-carboxylic acid]	100 to 1000 nM	< 100 nM	< 100 nM
O=C(O)c1ccnc(-n2nccc2OCc2ccc(F)cc2/C=C/c2ccc(F)cc2)c1 [Example 119, 2-[5-[[4-fluoro-2-[(E)-2-(4-fluorophenyl)ethenyl]phenyl]methoxy]pyrazol-1-yl]pyridine-4-carboxylic acid]	1000 to 10000 nM	100 to 1000 nM	100 to 1000 nM
O=C(O)c1ccnc(-n2nccc2OCc2ccc(Cl)cc2/C=C/c2ccc(F)cc2)c1 [Example 120, 2-[5-[[4-chloro-2-[(E)-2-(4-fluorophenyl)ethenyl]phenyl]methoxy]pyrazol-1-yl]pyridine-4-carboxylic acid]	1000 to 10000 nM	100 to 1000 nM	100 to 1000 nM
O=C(O)c1ccnc(-n2nccc2OCc2ccc(F)cc2CCc2ccc(F)cc2)c1 [Example 121, 2-[5-[[4-fluoro-2-[2-(4-fluorophenyl)ethyl]phenyl]methoxy]pyrazol-1-yl]pyridine-4-carboxylic acid]	1000 to 10000 nM	100 to 1000 nM	100 to 1000 nM
O=C(O)c1ccnc(-n2nccc2OCc2ccc(Cl)cc2CCc2ccc(F)cc2)c1 [Example 122, 2-[5-[[4-chloro-2-[2-(4-fluorophenyl)ethyl]phenyl]methoxy]pyrazol-1-yl]pyridine-4-carboxylic acid]	1000 to 10000 nM	100 to 1000 nM	100 to 1000 nM
O=C(O)c1ccnc(-n2nccc2OCc2cccc3c2OCC3)c1 [Example 123, 2-[5-(2,3-dihydro-1-benzofuran-7-ylmethoxy)pyrazol-1-yl]pyridine-4-carboxylic acid]	100 to 1000 nM	< 100 nM	< 100 nM
CCc1cc(C#N)ccc1COc1ccnn1-c1cc(C(=O)O)ccn1 [Example 126, 2-[5-[(4-cyano-2-ethylphenyl)methoxy]pyrazol-1-yl]pyridine-4-carboxylic acid]	100 to 1000 nM	< 100 nM	< 100 nM
CC(Oc1cc(Cl)ccc1COc1ccnn1-c1cc(C(=O)O)ccn1)c1ccccc1 (stereo not drawn) [Example 136, 2-[5-[[4-chloro-2-(1-phenylethoxy)phenyl]methoxy]pyrazol-1-yl]pyridine-4-carboxylic acid]	1000 to 10000 nM	100 to 1000 nM	100 to 1000 nM
CC(Oc1cc(F)ccc1COc1ccnn1-c1cc(C(=O)O)ccn1)c1ccccc1 (stereo not drawn) [Example 137, 2-[5-[[4-fluoro-2-(1-phenylethoxy)phenyl]methoxy]pyrazol-1-yl]pyridine-4-carboxylic acid]	1000 to 10000 nM	100 to 1000 nM	100 to 1000 nM

The next lines start with the values.

IC50 (JMJD2C)	IC50 (Jarid1A)	IC50 (Jarid1B)	Structure (SMILES)
100 to 1000 nM	< 100 nM	< 100 nM	O=C(O)c1ccnc(-n2nccc2OCc2ccc(F)cc2F)c1 [Example 86, 2-[5-[(2,4-difluorophenyl)methoxy]pyrazol-1-yl]pyridine-4-carboxylic acid]
100 to 1000 nM	< 100 nM	< 100 nM	O=C(O)c1ccnc(-n2nccc2OCc2ccc(Cl)cc2Cl)c1 [Example 88, 2-[5-[(2,4-dichlorophenyl)methoxy]pyrazol-1-yl]pyridine-4-carboxylic acid]
< 100 nM	< 100 nM	< 100 nM	COc1cc(Cl)ccc1COc1ccnn1-c1cc(C(=O)O)ccn1 [Example 90, 2-[5-[(4-chloro-2-methoxyphenyl)methoxy]pyrazol-1-yl]pyridine-4-carboxylic acid]
100 to 1000 nM	< 100 nM	< 100 nM	O=C(O)c1ccnc(-n2nccc2OCc2ccc(Cl)c(C(F)(F)F)c2)c1 [Example 91, 2-[5-[[4-chloro-3-(trifluoromethyl)phenyl]methoxy]pyrazol-1-yl]pyridine-4-carboxylic acid]
< 100 nM	< 100 nM	< 100 nM	Cc1ccc(COc2ccnn2-c2cc(C(=O)O)ccn2)cc1F [Example 93, 2-[5-[(3-fluoro-4-methylphenyl)methoxy]pyrazol-1-yl]pyridine-4-carboxylic acid]
< 100 nM	< 100 nM	< 100 nM	Cc1ccc(COc2ccnn2-c2cc(C(=O)O)ccn2)c(F)c1F [Example 94, 2-[5-[(2,3-difluoro-4-methylphenyl)methoxy]pyrazol-1-yl]pyridine-4-carboxylic acid]
100 to 1000 nM	< 100 nM	< 100 nM	CCc1ccc(COc2ccnn2-c2cc(C(=O)O)ccn2)cc1Cl [Example 95, 2-[5-[(3-chloro-4-ethylphenyl)methoxy]pyrazol-1-yl]pyridine-4-carboxylic acid]
100 to 1000 nM	< 100 nM	< 100 nM	CCc1ccc(COc2ccnn2-c2cc(C(=O)O)ccn2)cc1F [Example 96, 2-[5-[(4-ethyl-3-fluorophenyl)methoxy]pyrazol-1-yl]pyridine-4-carboxylic acid]
< 100 nM	< 100 nM	< 100 nM	N#Cc1cccc(COc2ccnn2-c2cc(C(=O)O)ccn2)c1 [Example 97, 2-[5-[(3-cyanophenyl)methoxy]pyrazol-1-yl]pyridine-4-carboxylic acid]
1000 to 10000 nM	100 to 1000 nM	100 to 1000 nM	CC(C)Oc1cc(Cl)ccc1COc1ccnn1-c1cc(C(=O)O)ccn1 [Example 113, 2-[5-[(4-chloro-2-propan-2-yloxyphenyl)methoxy]pyrazol-1-yl]pyridine-4-carboxylic acid]
1000 to 10000 nM	100 to 1000 nM	100 to 1000 nM	CCC(C)Oc1cc(Cl)ccc1COc1ccnn1-c1cc(C(=O)O)ccn1 (stereo not drawn) [Example 114, 2-[5-[(2-butan-2-yloxy-4-chlorophenyl)methoxy]pyrazol-1-yl]pyridine-4-carboxylic acid]
100 to 1000 nM	< 100 nM	< 100 nM	Cc1cc(F)ccc1COc1ccnn1-c1cc(C(=O)O)ccn1 [Example 128, 2-[5-[(4-fluoro-2-methylphenyl)methoxy]pyrazol-1-yl]pyridine-4-carboxylic acid]
100 to 1000 nM	< 100 nM	< 100 nM	CCc1cc(F)ccc1COc1ccnn1-c1cc(C(=O)O)ccn1 [Example 129, 2-[5-[(2-ethyl-4-fluorophenyl)methoxy]pyrazol-1-yl]pyridine-4-carboxylic acid]
100 to 1000 nM	< 100 nM	< 100 nM	Cc1ccc(COc2ccnn2-c2cc(C(=O)O)ccn2)c(F)c1 [Example 131, 2-[5-[(2-fluoro-4-methylphenyl)methoxy]pyrazol-1-yl]pyridine-4-carboxylic acid]
100 to 1000 nM	< 100 nM	< 100 nM	Cc1ccc(COc2ccnn2-c2cc(C(=O)O)ccn2)c(C#N)c1 [Example 134, 2-[5-[(2-cyano-4-methylphenyl)methoxy]pyrazol-1-yl]pyridine-4-carboxylic acid]
1000 to 10000 nM	100 to 1000 nM	100 to 1000 nM	CCc1cc(C)ccc1COc1ccnn1-c1cc(C(=O)O)ccn1 [Example 135, 2-[5-[(2-ethyl-4-methylphenyl)methoxy]pyrazol-1-yl]pyridine-4-carboxylic acid]
100 to 1000 nM	< 100 nM	< 100 nM	O=C(O)c1ccnc(-n2nccc2OCc2ccc(Cl)c(OCc3ccc(F)cc3)c2)c1 [Example 138, 2-[5-[[4-chloro-3-[(4-fluorophenyl)methoxy]phenyl]methoxy]pyrazol-1-yl]pyridine-4-carboxylic acid]
100 to 1000 nM	< 100 nM	< 100 nM	O=C(O)c1ccnc(-n2nccc2OCc2ccc(Cl)c(OCC(F)(F)F)c2)c1 [Example 141, 2-[5-[[4-chloro-3-(2,2,2-trifluoroethoxy)phenyl]methoxy]pyrazol-1-yl]pyridine-4-carboxylic acid]
100 to 1000 nM	100 to 1000 nM	100 to 1000 nM	Cc1cc(Br)ccc1COc1ccnn1-c1cc(C(=O)O)ccn1 [Example 142, 2-[5-[(4-bromo-2-methylphenyl)methoxy]pyrazol-1-yl]pyridine-4-carboxylic acid]
